Data reported in PubChem BioAssay (NCI).
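Growth conditions: 96-well plates. Treatment: test compound, 48 hours, 5 concentrations. Analysis: linear interpolation between bracketing concentrations; unreached endpoints set to highest concentration. GI50 = concentration required for 50% inhibition of growth. TGI: total growth inhibition.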

Legend:
Assay in all cases: NCI tumour cell line growth inhibition, 48 h
[1] = tested on: SNB-75 CNS
[2] = tested on: HCC-2998 colon
[3] = tested on: HCT-15 colon
[4] = tested on: SF-268 CNS
[5] = tested on: U251 CNS
[6] = tested on: NCI-H522 lung
[7] = tested on: RPMI-8226 leukemia
[8] = tested on: NCI-H226 lung
[9] = tested on: RXF 393 renal
[10] = tested on: MOLT-4 leukemia

Row | SMILES | TGI [1] [µM] | TGI [2] [µM] | TGI [3] [µM] | TGI [4] [µM] | TGI [5] [µM] | GI50 [1] [µM] | GI50 [6] [µM] | TGI [6] [µM] | GI50 [7] [µM] | TGI [7] [µM] | GI50 [8] [µM] | TGI [8] [µM] | GI50 [9] [µM] | TGI [9] [µM] | TGI [10] [µM] | GI50 [5] [µM]
1 | C/C(Cl)=N\OC(=O)Nc1ccc(C)cc1 | 26.3 | 31.4 | 31.5 | 32.9 | 29.9 | – | – | – | – | – | – | – | – | – | – | –
2 | CCc1c(CNc2ccc(C(=O)NC(CC(=O)O)C(=O)O)cc2)ccc2nc(N)nc(N)c12 (centres undefined) | > 1000 | – | > 1000 | > 1000 | > 1000 | 115 | 1.09 | > 1000 | 1.28 | > 1000 | > 1000 | > 1000 | > 1000 | > 1000 | > 1000 | 372
3 | O=C1NC2CCCCC2N=C1CC(=O)c1ccc(Br)cc1 (centres undefined) | – | > 100 | > 100 | > 100 | > 100 | – | – | > 100 | – | 7.16 | – | 81.2 | – | > 100 | > 100 | –
4 | Cc1cc(C)c2c(=O)cc(-c3cccc(F)c3)[nH]c2n1 | > 100 | 3.94 | > 38.2 | > 93.3 | > 84.1 | – | – | 0.141 | – | > 55.1 | – | 7.4 | – | – | > 53.5 | –
5 | COc1ccc(/C=c2\s/c(=C3/SC(=S)N(c4ccccc4)C3=O)n(-c3ccccc3)c2=O)cc1 | 21.4 | > 100 | > 100 | 26.9 | > 100 | – | – | > 100 | – | > 100 | – | – | – | – | 72.8 | –
6 | COC(=O)c1ccccc1NC(=O)C(=O)NNC(=O)c1ccncc1 | > 100 | > 100 | > 100 | – | – | – | – | > 100 | – | – | – | > 100 | – | > 100 | > 100 | –
7 | CC(=O)OCC1OC(n2c(-c3ccccc3)c(N=Nc3ccccc3)c(C)c(C#N)c2=S)C(OC(C)=O)C(OC(C)=O)C1OC(C)=O (centres undefined) | > 100 | > 100 | > 100 | > 100 | > 100 | – | – | – | – | > 100 | – | – | – | > 100 | > 100 | –
8 | COC(=O)C(=O)C(C(=O)C(=O)Nc1cccc(C(C)=O)c1)c1nc2ccccc2[nH]c1=O (centres undefined) | > 100 | > 100 | > 100 | > 100 | – | – | – | > 100 | – | – | – | > 100 | – | > 100 | > 100 | –
9 | c1cncc(CC2(c3cc4ccccc4[nH]3)OCCO2)c1 | > 100 | > 100 | > 100 | > 100 | > 100 | – | – | > 100 | – | – | – | > 100 | – | – | – | –
10 | Cc1ccc2c(c1)-c1c(C#N)c(N)nc(-c3ccc(Cl)cc3)c1CCS2(=O)=O | 14.3 | > 100 | > 100 | > 100 | > 100 | – | – | > 23.1 | – | 8.45 | – | > 100 | – | – | 68.7 | –
11 | COc1ccc(Nc2nc(N)c(C(=O)c3c[nH]c4ccccc34)s2)cc1 | 6.56 | – | 8.91 | > 100 | > 100 | – | – | – | – | – | – | 36.3 | – | 11.4 | 20.9 | –
12 | S=C(N/N=C\C(=N/NC(=S)N1CCCCC1)c1ccccc1)N1CCCCC1 | 3.72 | 3.9 | 5.1 | 3.72 | 3.56 | – | – | 3.77 | – | > 100 | – | 3.38 | – | 3.33 | – | –
13 | COc1ccc(-c2c3c(n(C4OC(CO)C(O)C(O)C4O)c(=S)c2C#N)CCC3)cc1 (centres undefined) | > 100 | > 100 | > 100 | > 100 | > 100 | – | – | – | – | > 100 | – | – | – | 63.6 | 85.4 | –
14 | COc1ccc(OC2OC(CO)C(OCc3ccccc3)C(OCc3ccccc3)C2OCc2ccccc2)cc1 (centres undefined) | > 100 | > 100 | – | > 100 | > 100 | – | – | > 100 | – | > 100 | – | > 100 | – | – | 72.9 | –
15 | C1=C2C3=[N+](CCCCC3)CC2Cc2ccsc21 (centres undefined) | > 100 | – | > 100 | > 100 | > 100 | – | – | > 100 | – | – | – | > 100 | – | > 100 | > 100 | –
16 | COc1ccc2nc(/C(N)=C\C#N)ccc2c1 | > 100 | – | > 100 | > 100 | > 100 | – | – | > 100 | – | > 100 | – | > 100 | – | > 100 | 88.5 | –
17 | COc1ccc(C2C3=C(COC3=O)Oc3cc4c(cc32)OCO4)c(OC)c1 (centres undefined) | 46.8 | > 100 | > 100 | > 100 | > 100 | – | – | – | – | > 100 | – | > 100 | – | 51 | > 100 | –
18 | CCOc1ccc(Nc2nc(N)nc(N)c2N)cc1 | 70.5 | – | > 100 | 31.1 | 66 | – | – | 52.1 | – | 38.1 | – | > 100 | – | – | > 100 | –
19 | Cc1cc(C)c(S(=O)(=O)N(CCCN)OCCCON(CCCN)S(=O)(=O)c2c(C)cc(C)cc2C)c(C)c1 | 3.29 | – | 34.8 | 2.8 | 3.08 | – | – | 2.88 | – | 6.55 | – | 7.66 | – | 15.7 | 10.7 | –
20 | CCC(CO)Nc1nc(NCc2ccccc2)c2ncn(C(C)C)c2n1 (centres undefined) | 26.8 | 34.7 | > 100 | 40.4 | > 100 | – | – | 55.4 | – | > 100 | – | 39.4 | – | 20.9 | – | –
21 | CCC1=C(C(C)=O)[C@@H]2CCCCC[C@@H](C(=O)OC)C2C1=O (some centres undefined) | > 100 | > 100 | > 100 | > 100 | > 100 | – | – | > 100 | – | > 100 | – | – | – | > 100 | > 100 | –
22 | CC1(C)OCC2OC3([C@@H]4OC(C)(C)O[C@H]4CO)OC(C)(C)OC3C2O1 (some centres undefined) | > 100 | > 100 | > 100 | – | > 100 | – | – | – | – | > 100 | – | > 100 | – | > 100 | > 100 | –
23 | O=C(O)c1cccc2cccc(-c3cccc4cccc(C(=O)O)c34)c12 | > 100 | > 100 | > 100 | > 100 | > 100 | – | – | > 100 | – | – | – | > 100 | – | > 100 | – | –
